Molecular target: T1, E. coli DXP synthase (DXPS) (Escherichia coli, UniProt P77488)
T1 sequence (P77488 2-620): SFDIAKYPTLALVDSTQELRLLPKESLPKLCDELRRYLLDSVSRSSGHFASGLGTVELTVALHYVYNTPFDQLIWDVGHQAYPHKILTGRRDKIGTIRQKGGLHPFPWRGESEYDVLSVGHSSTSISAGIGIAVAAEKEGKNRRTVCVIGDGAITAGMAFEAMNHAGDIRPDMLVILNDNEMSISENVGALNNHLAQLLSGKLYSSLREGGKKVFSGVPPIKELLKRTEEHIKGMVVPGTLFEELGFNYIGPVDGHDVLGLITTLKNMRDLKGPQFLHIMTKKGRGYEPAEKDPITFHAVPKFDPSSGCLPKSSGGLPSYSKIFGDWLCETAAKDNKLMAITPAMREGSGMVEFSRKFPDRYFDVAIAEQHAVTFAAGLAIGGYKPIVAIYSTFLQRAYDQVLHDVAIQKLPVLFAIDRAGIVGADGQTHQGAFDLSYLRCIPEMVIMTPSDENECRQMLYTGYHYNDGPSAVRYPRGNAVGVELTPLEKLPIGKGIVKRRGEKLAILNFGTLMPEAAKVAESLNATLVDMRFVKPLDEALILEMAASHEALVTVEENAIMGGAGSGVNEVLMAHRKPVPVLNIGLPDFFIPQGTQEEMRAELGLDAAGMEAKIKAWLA
Assay: IspC-coupled NADPH consumption at […] nm
Format: biochemical

Row | Compound | Ki
1 | CCCOP(=O)(O)C(C)=O [compound 3, alkylAP 3] | 7.1 ± 0.8 µM
2 | CCCCCCCCOP(=O)(O)C(C)=O [compound 7, octylacetylphosphonate] | 1.4 ± 0.2 µM

Reference: PMC5650741 (ACS infectious diseases, 2017)
